# “Also recorded” adds a separate entry of the source.
# Legend:
# [1] = tested on: dizocilpine-treated mice; test: step-through passive avoidance, dizocilpine-induced amnesia model; assay type: in vivo, Male Swiss OF-1 mice
# [2] = tested on: homozygous scn1Lab−/− mutants; test: epileptiform activity, open-field recordings in larval forebrain (LFP assay); assay type: in vivo, zebrafish (Danio rerio)
# [3] = tested on: homozygous scn1Lab−/− mutants; test: zebrafish locomotor assay (total distance in large movements, lardist); assay type: in vivo, zebrafish (Danio rerio)
# Text: (Baraban et al, 2013). Additional phenotypes of these mutants include: abnormal optokinetic response (OKR; 5 dpf); darkened pigmentation; death by 14 dpf; spontaneous seizure-like activity; abnormal (forebrain electrographic activity (3-7 dpf); seizure activity; lower levels of serotonin in scn1lab^−/− head homogenates at 7 dpf; zebrafish express orthologs of human serotonin (5HT) receptor subtypes at 5 dpf; nighttime hyperactivity (5 dpf); in open field-increased thigmotaxis. decreased movement (at 5 dpf); no differences in GABAergic neurons compared to wild type (5 dpf); 5-HT2a (hitr2aa/b) and S-HT2c; (htr2c11) orthologs expressed in larval heads in wild-type and scn1lab−/− mutants and in adult wild-type brains.
# To assay the locomotor activity of homozygous scn1Lab−/− mutants and control WT scn1Lab+/+, zebrafish larvae were placed one larva per well in a 96-well plate in 100 μL of embryo medium from 4 to 8 days post-fertilization (dpf). Each day the larvae are tracked in an automated tracking device (ZebraBox™ apparatus; Viewpoint, Lyon, France) for 10 min after 30 min habituation (100-second integration interval). All recordings were performed at the same time during daytime period. The total distance in large movements was recorded and quantified using ZebraLab™ software (Viewpoint, Lyon, France). Data was pooled together from at least three independent experiments with at least 24 larvae per condition.
# Scn1Lab^−/− mutants and WT scn1Lab+/+ larvae are arrayed in the same plate and treated at 6 days post fertilization (dpf) with the test compounds (25 μM), or VHC in individual wells of a 96-well plate. After incubation at 28° C. on a 14/10 hour light/dark cycle and 30-min chamber habituation 6 and 7 dpf larvae are tracked for locomotor activity for 10 min (100-second integration interval) under dark conditions. An incubation time of 1.5 hours is further referred to as short treatment (6 dpf). Furthermore, these larvae are analyzed after more than 22 hours incubation (7 dpf), i.e. long treatment. The total locomotor activity is quantified using the parameter lardist and plotted in cm. Data for each compound is pooled together from multiple independent experiments with at least 9 larvae per treatment condition.
# [4] = tested on: WT scn1Lab+/+ zebrafish larvae; test: maximal tolerated concentration (MTC); assay type: in vivo, zebrafish (Danio rerio); conditions: no signs of toxicity in 12 out of 12 larvae within 48 hours of exposure
# Method: To evaluate the maximal tolerated concentration (MTC) of each compound, 6 dpf-old WT scn1Lab+^+/+ zebrafish larvae were incubated in a 96-well plate (tissue culture plate, flat bottom, FALCON®, USA) with different concentrations of compound or VHC at 28° C. on a 14/10 hour light/dark cycle under standard aquaculture conditions (medium is replenished daily). Each larva was individually checked under the microscope during a period of 48 hours for the following signs of toxicity: decreased or no touch response upon a light touch of the tail, loss of posture, body deformation, edema, changes in heart rate or circulation and death. […] MTC was determined as 100 micromolar (μM) for (+)-fenfluramine and both norfenfluramine enantiomers. A MTC of 50 μM was determined for (−)-fenfluramine.
# [5] = in vivo; cited from earlier work
# [6] = tested on: dizocilpine-treated mice; test: dizocilpine-induced learning deficits, statements covering both tests (Y-maze and passive avoidance); assay type: in vivo, Male Swiss OF-1 mice; conditions: mouse, in vivo
# Method: Experiments were conducted to determine the dose-response effects of fenfluramine (FEN) and norfenfluramine (NOR), racemate and (+)- and (−)-isomers, in an in vivo mouse model; the dizocilpine-induced amnesia model (described below) is used to test responses to drugs acting at the sigma-1 receptor (S1R) (Maurice et al., 1994a,b; Maurice, et al., 1998, Neuroscience 83:413-428).
# The drugs were administered intraperitoneally (“ip” or “IP”) with dizocilpine (0.15 mg/kg) and tested in the spontaneous alternation test on day 1 and in the passive avoidance test on days 2-3.
# The apparatus consisted of a 2-compartment box, with one illuminated with white polyvinylchloride (PVC) walls and a transparent cover (15×20×15 cm high), one with black polyvinylchloride walls and cover (15×20×15 cm high), and a grid floor. A guillotine door separated each compartment. A 60 W lamp was positioned 40 cm above the apparatus lit the white compartment during the experimental period. Scrambled foot shocks (0.3 mA for 3 s) were delivered to the grid floor using a shock generator scrambler (Lafayette Instruments, Lafayette, Mass., USA). The guillotine door was initially closed during the training session. Each mouse was placed into the white compartment. After 5 s, the door was raised. When the mouse entered the darkened compartment and placed all its paws on the grid floor, the door was gently closed and the 3-scrambled foot shock was delivered for 3 s. The step-through latency, i.e., the latency spent to enter the dark compartment, and the level of sensitivity to the shock were recorded. The latter was evaluated as: 0=no sign; 1=flinching reactions; 2=flinching and vocalization reactions. The retention test was carried out 24 h after training. Each mouse was placed again into the white compartment. After 5 s, the door was raised. The step-through latency was recorded up to 300 s. Animals entered the darkened compartment or were gently pushed into it and the escape latency, i.e., the time spent to return into the white compartment, was also measured up to 300 s. Results were expressed as median and interquartile (25%-75%) range.
# The Y-maze is made of grey PVC. Each arm is 40 cm long, 13 cm high, 3 cm wide at the bottom, 10 cm wide at the top, and converged at an equal angle. Each mouse was placed at the end of one arm and allowed to move freely through the maze during an 8-min session. The series of arm entries, including possible returns into the same arm, were checked visually. An alternation was defined as entries into all three arms on consecutive occasions. The number of maximum alternations was therefore the total number of arm entries minus two and the percentage of alternation was calculated as: actual alternations/maximum alternations)×100. Parameters included the percentage of alternation (memory index) and total number of arm entries (exploration index).
# [7] = tested on: dizocilpine-treated mice; test: spontaneous alternation in the Y-maze, dizocilpine-induced amnesia model; assay type: in vivo, Male Swiss OF-1 mice
# [8] = tested on: Generalized tonic-clonic seizures; test: acute maximal electroshock (MES) test; assay type: in vivo, male CF-1 mice
# Method: (§1) The antiseizure effects of racemic fenfluramine were assessed in three mouse models of acute and chronic seizures in naïve male CF-1 mice (Envigo (Indianapolis, Ind., USA); 18-35 g): 1) the acute maximal electroshock (MES) test; 2) the acute 44 mA 6 Hz test; and 3) the chronic corneal kindled mouse (CKM) model.
# (§2) Methods: Testing progressed in three phases: identification, time course, and dose response. In the identification phase, mice were administered FFA (3, 10, 30 mg/kg, ip), vehicle, or retigabine (positive control, 20 or 50 mg/kg, ip) 0.5 or 2 hr before testing (n=4/group). […] Dose-dependent anticonvulsant activity of FFA was assessed by testing between 0.25 and 120 mg/kg (n=8/dose). The effect of FFA on mild motor impairment (MMI) in the fixed-speed rotarod (FSR) was assessed prior to the MES, 44 mA 6 Hz, and CKM tests.
# [9] = tested on: secondarily generalized focal seizures; test: acute 44 mA 6 Hz test; assay type: in vivo, male CF-1 mice
# Method: as §1, §2
# [10] = tested on: corneal kindled mouse; test: chronic corneal kindled mouse (CKM) model; assay type: in vivo, male CF-1 mice
# Method: as §1, §2
# [11] = tested on: 6-Hz seizures; test: acute mouse 6-Hz model (FIG. 9); assay type: in vivo, NMRI mice
# Method: FIG. 9 includes two graphs that summarize the effects of racemic fenfluramine (abbreviated herein as “FA,” “FFA” or “FEN”) treatment in 6-Hz mice, as described in Example 2. FIG. 9A is a bar graph showing the percentage of animals protected for mice treated with vehicle, with […], and with 5 mg/kg FA. […] Protection being defined as the absence of a seizure within the expected time frame (i.e. below the minimum seizure duration in VHC treated mice).
# Rapid screening of possible anticonvulsants can be performed by using acute (instead of chronic) animal models of drug-resistant seizures. […] In addition to the protocol using 44 mA pulses, more “lenient” versions of the model using 22 mA or 32 mA currents are sometimes employed.
# [12] = fixed-speed rotarod, minimal motor impairment (MMI); assay type: in vivo, male CF-1 mice
# Method: as §2
# [13] = Table 5 STPA, drug alone 0.1 mg/kg ip
# [14] = Table 5 STPA, drug alone 0.3 mg/kg ip
# [15] = Table 6 STPA, drug alone 0.1 mg/kg ip
# [16] = Table 6 STPA, drug alone 0.3 mg/kg ip
# [17] = Table 5 YMT, drug alone 0.1 mg/kg ip
# [18] = Table 5 YMT, drug alone 0.3 mg/kg ip
# [19] = Table 6 YMT, drug alone 0.1 mg/kg ip
# [20] = Table 6 YMT, drug alone 0.3 mg/kg ip
compound,measurement,setting,value
"CCN[C@@H](C)Cc1cccc(C(F)(F)F)c1 [(+)-Fenfluramine, (2S)-N-ethyl-1-[3-(trifluoromethyl)phenyl]propan-2-amine]",PP (%),"[1]; Table 3 StepThrough/PassiveAvoidance, drug alone 0.1 mg/kg IP",9.0 ± 15.8%
same,PP (%),"[1]; Table 3 StepThrough/PassiveAvoidance, drug alone 0.3 mg/kg IP",24.8 ± 14.9 ^4%
same,PP (%),[1]; [13],11.6 ± 13.6%
same,PP (%),[1]; [14],35.2 ± 14.2^6%
same,PP (%),[1]; [15],15.6 ± 17.3%
same,PP (%),[1]; [16],31.9 ± 16.3 ^6%
same,anti-epileptiform activity (frequency and cumulative duration of epileptiform events over 10 minutes),"[2]; 50 micromolar, FIGS. 4 and 5",comparable
same,LFP Assay,"[2]; Table 1, 25, 59 and 100 μM, oral via embryo medium",Most effective in reducing spikes; also recorded: Normal dose-response; higher
same,Conclusions,"[3]; Table 1, locomotor and LFP assays",(+)-FFA is more effective than racemic FFA
same,antiseizure activity in the zebrafish locomotor assay,[3]; scn1Lab−/− mutants,more efficacious than (−)-fenfluramine
same,reduction in seizure behavior,"[3]; scn1Lab−/− mutants, fixed concentration, FIG. 3",84%
same,potency in treating symptoms of epilepsy compared to levofenfluramine,"[3]; zebrafish, in vivo",approximately twice
same,maximum tolerated concentration (MTC),[4],100 µM
same,mean elimination half-life,[5],19 h
same,behavior in vivo at S1R,[6],behaved in vivo as S1R positive modulators
same,PP (%),"[7]; Table 3 Y-Maze, drug alone 0.1 mg/kg IP",1.3 ± 7.9%
same,PP (%),"[7]; Table 3 Y-Maze, drug alone 0.3 mg/kg IP",37.9 ± 9.4 ^2%
same,PP (%),[7]; [17],8.68 ± 8.7%
same,PP (%),[7]; [18],40.2 ± 11.3^3%
same,PP (%),[7]; [19],0.4 ± 11.5%
same,PP (%),[7]; [20],46.7 ± 8.9 ^3%
"CCNC(C)Cc1cccc(C(F)(F)F)c1 (racemic) [Fenfluramine, (RS)—N-ethyl-1-[3-(trifluoromethyl)phenyl]propan-2-amine]",protection,"[8]; 0.5 hours, 3 mg/kg ip",0%
same,protection,"[8]; 0.5 hours, 10 mg/kg ip",0%
same,protection,"[8]; 0.5 hours, 30 mg/kg ip",100%
same,protection,"[8]; 2.0 hours, 3 mg/kg ip",75%
same,protection,"[8]; 2.0 hours, 10 mg/kg ip",50%
same,protection,"[8]; 2.0 hours, 30 mg/kg ip",100%
same,"protection, time course at last time point",[8]; 4 hours post dosing,100% protection at 4 hours post dosing
same,ED50,"[8]; Mus musculus, MES, Probit regression, 95% CI 1.4 to 5.1 mg/kg",2.9 mg/kg
same,anticonvulsant effect in the MES model,[8]; acute administration,substantial anticonvulsant effect
same,protection,[9]; 4 hours,no protection
same,ED50,"[9]; Mus musculus, 6 Hz 44 mA, 95% CI 31.9 to 66.7 mg/kg",47 mg/kg
same,activity in a model of focal seizures that secondarily generalize,"[9]; mouse, in vivo",some activity
same,PP (%),"[1]; Table 2 StepThrough/Passive Avoidance, drug alone 0.1 mg/kg IP",11.0 ± 11.6%
same,PP (%),"[1]; Table 2 StepThrough/Passive Avoidance, drug alone 0.3 mg/kg IP",55.7 ± 10.5%
same,PP (%),"[1]; Table 2 StepThrough/Passive Avoidance, drug alone 1 mg/kg IP",40.8 ± 13.0 ^4%
same,PP (%),[1]; [13],11.2 + 12.0%
same,PP (%),[1]; [14],65.5 ± 12.1^5%
same,PP (%),[1]; [15],16.8 ± 14.2%
same,PP (%),[1]; [16],60.1 ± 13.9 ^5%
same,mice died,[10]; 90 mg/kg,2 of 8
same,mice died,[10]; 120 mg/kg,6 of 8
same,anticonvulsant activity,[10]; all doses tested,Minimal anticonvulsant activity at all doses tested
same,number of mice having seizures and duration of seizures,[11]; 20 and 5 mg/kg (FIG. 9),dose-dependent decrease
same,seizures in the mouse 6-Hz model,[11]; Mann-Whitney p<0.05 vs. VHC,significantly reduced seizures
same,period of post-seizure aggression,[11]; vehicle mice displayed it,did not
same,behavior in vivo at S1R,[6],behaved in vivo as S1R positive modulators
same,Impairment,"[12]; 6 Hz 44 mA section, 30 mg/kg at 0.25, 0.50, 1.00 and 2.00 hours","Some impairment found at a dose of 30 mg/kg at timepoints of 0.25, 0.50, 1.00, and"
same,Impairment,"[12]; 6 Hz 44 mA section, 4 hours",no impairment
same,Impairment,[12]; at doses used in the MES model,No impairment on rotarod at doses used in this model
same,TD50,"[12]; male, CF-1, mouse, in vivo, intraperitoneal, reported under 6 Hz 44 mA, 95% CI 25.3 to 53.0",34.6 mg/kg
same,PP (%),"[7]; Table 2 Y-Maze, drug alone 0.1 mg/kg IP",1.3 ± 7.9%
same,PP (%),"[7]; Table 2 Y-Maze, drug alone 0.3 mg/kg IP",37.9 ± 9.4%
same,PP (%),"[7]; Table 2 Y-Maze, drug alone 1 mg/kg IP",59.8 ± 6.1 ^2%
same,PP (%),[7]; [17],4.4 ± 7.7%
same,PP (%),[7]; [18],33.6 ± 5.7^2%
same,PP (%),[7]; [19],-9.81 ± 7.6^ %
same,PP (%),[7]; [20],26.6 ± 9.8 ^2%

# Source: patent publication US20210401776A1, “METHOD OF TREATING […] SYNDROMES USING FENFLURAMINE ENANTIOMERS” (ZOGENIX INTERNATIONAL LIMITED, priority 2018, published 2021)
